Results: paper PMC5564600 (Oncotarget, 2017)

Legend:
Assay in all cases: biochemical
Assay type in all cases: binding
panel of 442 kinases [1] = target: T1, panel of 442 kinases (Homo sapiens, UniProt P21709); conditions: EPHA1; for remaining activity at 1 µM: read-out: % of control at 1 µM
T1 construct: purchased Ambit Biosciences (scanMAXX KINOMEscan)
T1 sequence (P21709 26-976): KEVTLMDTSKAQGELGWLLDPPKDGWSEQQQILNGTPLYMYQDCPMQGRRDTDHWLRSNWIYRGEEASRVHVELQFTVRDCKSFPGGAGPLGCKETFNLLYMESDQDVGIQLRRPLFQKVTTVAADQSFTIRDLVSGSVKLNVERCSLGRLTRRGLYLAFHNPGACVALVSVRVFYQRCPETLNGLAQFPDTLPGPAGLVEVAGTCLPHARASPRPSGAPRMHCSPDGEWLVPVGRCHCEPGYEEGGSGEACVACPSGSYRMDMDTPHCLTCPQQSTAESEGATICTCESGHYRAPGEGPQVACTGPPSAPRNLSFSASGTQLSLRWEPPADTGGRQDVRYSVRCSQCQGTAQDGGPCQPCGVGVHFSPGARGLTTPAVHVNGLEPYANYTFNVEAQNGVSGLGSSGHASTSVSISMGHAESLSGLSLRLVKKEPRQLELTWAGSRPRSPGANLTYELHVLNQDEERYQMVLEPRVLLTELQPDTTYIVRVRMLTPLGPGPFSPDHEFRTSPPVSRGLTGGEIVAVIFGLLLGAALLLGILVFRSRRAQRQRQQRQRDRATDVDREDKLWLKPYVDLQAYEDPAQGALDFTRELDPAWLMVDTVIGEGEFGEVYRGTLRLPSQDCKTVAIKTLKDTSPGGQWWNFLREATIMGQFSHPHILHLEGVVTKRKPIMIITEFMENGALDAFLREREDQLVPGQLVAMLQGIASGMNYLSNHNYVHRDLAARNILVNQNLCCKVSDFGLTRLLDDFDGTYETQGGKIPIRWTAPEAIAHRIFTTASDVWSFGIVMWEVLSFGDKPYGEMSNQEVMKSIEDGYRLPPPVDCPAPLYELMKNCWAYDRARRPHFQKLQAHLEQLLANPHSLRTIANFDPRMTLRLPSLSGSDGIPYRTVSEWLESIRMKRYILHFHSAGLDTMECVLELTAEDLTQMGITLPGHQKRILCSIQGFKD

panel of 442 kinases [2] = target: T2, panel of 442 kinases (Homo sapiens, UniProt P04049); conditions: kinase RAF1; for remaining activity at 1 µM: read-out: RAF1 (% of control at 1 µM)
T2 construct: purchased Ambit Biosciences (scanMAXX KINOMEscan)
T2 sequence (P04049 whole entry): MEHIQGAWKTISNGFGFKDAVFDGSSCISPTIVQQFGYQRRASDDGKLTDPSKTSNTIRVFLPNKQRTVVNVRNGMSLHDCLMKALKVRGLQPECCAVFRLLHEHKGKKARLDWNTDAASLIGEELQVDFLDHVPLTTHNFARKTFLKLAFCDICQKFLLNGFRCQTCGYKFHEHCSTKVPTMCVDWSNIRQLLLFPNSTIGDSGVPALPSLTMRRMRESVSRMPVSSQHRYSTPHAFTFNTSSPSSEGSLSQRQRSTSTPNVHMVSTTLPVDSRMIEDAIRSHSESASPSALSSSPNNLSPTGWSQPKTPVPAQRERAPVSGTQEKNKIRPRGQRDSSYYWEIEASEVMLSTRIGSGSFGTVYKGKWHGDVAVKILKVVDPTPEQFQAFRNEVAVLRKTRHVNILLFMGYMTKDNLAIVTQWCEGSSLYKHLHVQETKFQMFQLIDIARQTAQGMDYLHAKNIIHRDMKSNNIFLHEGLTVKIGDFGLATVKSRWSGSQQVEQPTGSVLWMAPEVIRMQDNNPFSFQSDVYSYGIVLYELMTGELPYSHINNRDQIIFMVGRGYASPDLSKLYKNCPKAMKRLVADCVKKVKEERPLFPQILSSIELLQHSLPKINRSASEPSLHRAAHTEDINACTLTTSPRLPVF

panel of 442 kinases [3] = target: T3, panel of 442 kinases (Homo sapiens, UniProt P35968); conditions: kinase VEGFR2; for remaining activity at 1 µM: read-out: VEGFR2 (% of control at 1 µM)
T3 construct: purchased Ambit Biosciences (scanMAXX KINOMEscan)
T3 sequence (P35968 20-1356): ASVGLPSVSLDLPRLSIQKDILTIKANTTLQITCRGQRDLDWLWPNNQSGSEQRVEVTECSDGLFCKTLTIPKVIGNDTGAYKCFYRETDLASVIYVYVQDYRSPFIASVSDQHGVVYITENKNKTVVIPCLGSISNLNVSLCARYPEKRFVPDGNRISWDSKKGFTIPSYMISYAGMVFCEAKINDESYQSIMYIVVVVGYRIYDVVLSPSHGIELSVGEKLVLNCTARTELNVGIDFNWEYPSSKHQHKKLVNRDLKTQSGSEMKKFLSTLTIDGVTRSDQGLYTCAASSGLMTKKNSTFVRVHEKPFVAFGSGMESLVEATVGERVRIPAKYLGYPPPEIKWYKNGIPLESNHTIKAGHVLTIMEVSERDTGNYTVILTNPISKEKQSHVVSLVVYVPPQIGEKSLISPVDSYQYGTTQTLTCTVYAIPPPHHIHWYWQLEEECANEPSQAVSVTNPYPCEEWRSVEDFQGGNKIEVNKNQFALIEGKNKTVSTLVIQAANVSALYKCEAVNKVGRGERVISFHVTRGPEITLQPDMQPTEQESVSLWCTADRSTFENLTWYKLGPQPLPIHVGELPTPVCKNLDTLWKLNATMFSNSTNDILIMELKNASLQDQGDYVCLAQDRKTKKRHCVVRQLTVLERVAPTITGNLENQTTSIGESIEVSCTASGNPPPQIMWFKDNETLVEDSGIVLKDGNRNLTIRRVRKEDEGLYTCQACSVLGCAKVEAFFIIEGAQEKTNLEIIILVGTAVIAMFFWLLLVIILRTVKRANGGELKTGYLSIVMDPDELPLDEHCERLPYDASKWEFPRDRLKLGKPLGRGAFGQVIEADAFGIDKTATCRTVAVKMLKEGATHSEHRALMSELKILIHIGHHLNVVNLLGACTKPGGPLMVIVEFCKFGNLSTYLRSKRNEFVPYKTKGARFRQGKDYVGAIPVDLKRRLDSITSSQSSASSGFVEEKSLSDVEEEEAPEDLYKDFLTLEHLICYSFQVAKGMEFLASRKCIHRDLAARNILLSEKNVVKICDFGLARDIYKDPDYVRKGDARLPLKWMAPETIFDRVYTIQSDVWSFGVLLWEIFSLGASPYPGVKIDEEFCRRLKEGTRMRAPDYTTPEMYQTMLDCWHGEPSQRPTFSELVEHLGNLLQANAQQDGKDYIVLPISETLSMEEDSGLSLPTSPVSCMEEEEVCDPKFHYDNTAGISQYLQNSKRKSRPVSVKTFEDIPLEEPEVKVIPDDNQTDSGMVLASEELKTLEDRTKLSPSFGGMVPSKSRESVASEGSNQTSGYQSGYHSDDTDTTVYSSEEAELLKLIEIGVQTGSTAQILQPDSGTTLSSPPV

panel of 442 kinases [4] = target: T4, panel of 442 kinases (Homo sapiens, UniProt Q9NRP7); conditions: kinase STK36; for remaining activity at 1 µM: read-out: STK36 (% of control at 1 µM)
T4 construct: purchased Ambit Biosciences (scanMAXX KINOMEscan)
T4 sequence (Q9NRP7 1-1315): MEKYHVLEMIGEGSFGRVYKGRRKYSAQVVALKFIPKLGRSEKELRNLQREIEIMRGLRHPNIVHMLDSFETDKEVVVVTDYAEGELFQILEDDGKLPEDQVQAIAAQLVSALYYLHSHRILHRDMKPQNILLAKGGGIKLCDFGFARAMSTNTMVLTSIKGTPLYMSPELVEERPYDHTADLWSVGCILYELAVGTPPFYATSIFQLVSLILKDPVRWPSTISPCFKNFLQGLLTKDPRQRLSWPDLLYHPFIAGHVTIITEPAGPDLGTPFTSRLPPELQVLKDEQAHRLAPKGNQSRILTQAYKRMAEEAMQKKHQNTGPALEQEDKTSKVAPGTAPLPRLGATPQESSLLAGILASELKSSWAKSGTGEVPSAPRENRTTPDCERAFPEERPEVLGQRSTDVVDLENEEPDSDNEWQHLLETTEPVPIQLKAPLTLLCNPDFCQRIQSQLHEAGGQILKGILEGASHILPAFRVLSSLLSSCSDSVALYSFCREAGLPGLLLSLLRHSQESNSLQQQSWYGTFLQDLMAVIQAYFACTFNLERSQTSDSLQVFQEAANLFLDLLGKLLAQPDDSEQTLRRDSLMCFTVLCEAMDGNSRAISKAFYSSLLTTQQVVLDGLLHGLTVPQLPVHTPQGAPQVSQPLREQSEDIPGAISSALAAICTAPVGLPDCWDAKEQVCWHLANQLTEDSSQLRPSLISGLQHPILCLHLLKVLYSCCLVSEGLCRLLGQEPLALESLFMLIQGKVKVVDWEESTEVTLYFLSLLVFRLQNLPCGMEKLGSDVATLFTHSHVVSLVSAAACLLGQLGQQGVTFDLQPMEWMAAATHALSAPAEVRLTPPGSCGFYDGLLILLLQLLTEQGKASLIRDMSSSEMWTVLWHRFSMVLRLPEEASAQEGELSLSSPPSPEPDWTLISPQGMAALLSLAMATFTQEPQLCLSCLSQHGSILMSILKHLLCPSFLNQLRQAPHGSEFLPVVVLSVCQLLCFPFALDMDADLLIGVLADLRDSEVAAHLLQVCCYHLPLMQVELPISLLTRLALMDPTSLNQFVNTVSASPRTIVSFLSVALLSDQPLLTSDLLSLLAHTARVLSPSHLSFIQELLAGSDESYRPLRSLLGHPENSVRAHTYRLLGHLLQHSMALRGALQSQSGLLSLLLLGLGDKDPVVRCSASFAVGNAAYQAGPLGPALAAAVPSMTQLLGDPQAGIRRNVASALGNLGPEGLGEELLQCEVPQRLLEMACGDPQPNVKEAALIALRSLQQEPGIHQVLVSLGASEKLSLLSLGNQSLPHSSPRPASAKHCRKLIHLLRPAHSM

Row | Compound | remaining activity at 1 µM (panel of 442 kinases [1]) | remaining activity at 10 µM (panel of 442 kinases [1]; 10 µM, read-out: % of control at 10 µM) | remaining activity at 1 µM (panel of 442 kinases [2]) | remaining activity at 10 µM (panel of 442 kinases [2]; 10 µM, read-out: RAF1 (% of control at 10 µM)) | remaining activity at 1 µM (panel of 442 kinases [3]) | remaining activity at 10 µM (panel of 442 kinases [3]; 10 µM, read-out: VEGFR2 (% of control at 10 µM)) | remaining activity at 1 µM (panel of 442 kinases [4]) | remaining activity at 10 µM (panel of 442 kinases [4]; 10 µM, read-out: STK36 (% of control at 10 µM))
1 | Nc1cc(C(F)(F)F)c(-c2cc(N3CCOCC3)nc(N3CCOCC3)n2)cn1 [Buparlisib] | 90% | 100% | 100% | 100% | 87% | 100% | 100% | 100%
2 | Cn1c(=O)n(-c2ccc(C(C)(C)C#N)cc2)c2c3cc(-c4cnc5ccccc5c4)ccc3ncc21 [Dactolisib, 2-methyl-2-[4-(3-methyl-2-oxo-8-quinolin-3-yl-2,3-dihydroimidazo[4,5-c]quinolin-1-yl)-phenyl] propionitrile] | 100% |  | 94% |  | 100% |  | 89% | 
3 | COc1ncc(-c2ccc3nccc(-c4ccnnc4)c3c2)cc1NS(=O)(=O)c1ccc(F)cc1F [Omipalisib] | 97% |  | 100% |  | 78% |  | 85% | 
4 | FC(F)c1nc2ccccc2n1-c1nc(N2CCOCC2)nc(N2CCOCC2)n1 [ZSTK474, 2-(difluoromethyl)-1-[4,6-di(4-morpholinyl)-1,3,5-triazin-2-yl]-1H-benzimidazole] | 99% |  | 73% |  | 100% |  | 95% | 
